Measurements: PubChem BioAssay (NCI)
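48-hour exposure; five concentrations; linearly interpolated endpoints. GI50 is the concentration that inhibits growth by half. At the TGI there is no net growth.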

How the values were obtained:
Assay in all cases: NCI-60 cell line screen, 48 h
DLD-1 colon = test system: DLD-1 colon
DMS 114 small cell lung = test system: DMS 114 small cell lung
HL-60(TB) leukemia = test system: HL-60(TB) leukemia
KM20L2 colon = test system: KM20L2 colon
NCI/ADR-RES ovarian = test system: NCI/ADR-RES ovarian
SF-295 CNS = test system: SF-295 CNS
SK-MEL-28 melanoma = test system: SK-MEL-28 melanoma
SNB-78 CNS = test system: SNB-78 CNS
UO-31 renal = test system: UO-31 renal
LXFL 529 NSCLC = test system: LXFL 529 NSCLC

Row | Compound | TGI (DLD-1 colon) [µM] | TGI (DMS 114 small cell lung) [µM] | TGI (HL-60(TB) leukemia) [µM] | TGI (KM20L2 colon) [µM] | TGI (NCI/ADR-RES ovarian) [µM] | TGI (SF-295 CNS) [µM] | TGI (SK-MEL-28 melanoma) [µM] | TGI (SNB-78 CNS) [µM] | TGI (UO-31 renal) [µM] | TGI (LXFL 529 NSCLC) [µM] | GI50 (DMS 114 small cell lung) [µM] | GI50 (KM20L2 colon) [µM] | GI50 (LXFL 529 NSCLC) [µM] | GI50 (SF-295 CNS) [µM] | GI50 (SK-MEL-28 melanoma) [µM] | GI50 (SNB-78 CNS) [µM] | GI50 (UO-31 renal) [µM]
1 | COc1cc(/C=C/C(=O)Oc2ccccc2)ccc1C(=O)O/C=C/c1ccccc1 | > 100 | > 100 | > 100 | > 100 | > 100 | > 100 | > 100 | > 100 | > 100 |  |  |  |  |  |  |  | 
2 | CC(C)(C)OC(=O)N1C2CCCC23O[C@@H]1c1cc2c(cc1C3=O)OCO2 (some centres undefined) | > 100 | > 100 | 38.3 |  |  | 82.9 | > 100 | > 100 | > 100 | > 100 |  |  |  |  |  |  | 
3 | Cc1ccc2[c](c1)[Sn]([c]1ccccc1)([c]1ccccc1)[c]1cc(C)ccc1N2C |  | > 100 |  | > 100 |  | > 100 | > 100 | > 100 | > 100 | > 100 | 28.7 | > 100 | 26.6 | > 100 | 64.5 | 46.2 | > 100
4 | O=C1c2ccccc2C(=O)N1C/C=N/NS(=O)(=O)c1ccc(Br)cc1 | > 100 | > 100 | > 100 | > 100 |  | > 100 | > 100 | > 100 | > 100 | > 100 |  |  |  |  |  |  | 
5 | CC1COS(=O)O1 (centres undefined) | > 100 | > 100 | > 100 | > 100 |  | > 100 | > 100 | > 100 | > 100 |  |  |  |  |  |  |  | 
6 | CS(=O)(=O)CS(=O)(=O)OCCCl | 1450 | 339 | 541 | 1240 | 1960 | 554 | 1510 | 420 | 1080 |  |  |  |  |  |  |  | 
7 | O=C1C=CC(=CC=C2C=CN(CCCCCCCCCCC(=O)NCCCCCCCCCCCC(=O)O)C=C2)C=C1 | > 100 | > 100 | > 100 | > 100 |  | > 100 | > 100 | > 100 | > 100 | > 100 |  |  |  |  |  |  | 
8 | NC(=S)N/N=C1\CCCC\C1=C/c1ccccc1 | > 100 | > 100 | 4.74 | > 100 |  | > 100 | > 100 | > 100 | > 100 | > 100 |  |  |  |  |  |  | 
9 | C[Si](C)(C)CN1C(=O)c2ccccc2C1(O)c1ccccc1 (centres undefined) | > 100 | > 100 | > 100 | > 100 |  | > 100 | > 100 | > 100 | > 100 | > 100 |  |  |  |  |  |  | 
10 | Cc1ccc(C)c(N2C(=O)C(=O)C(c3nc4ccccc4o3)/C(=N\NC(=O)c3ccccc3O)C2=O)c1 (centres undefined) | > 100 | 71.3 | 31.2 | > 100 |  | > 100 | > 100 | > 100 | 87.6 | > 100 |  |  |  |  |  |  | 
11 | C1=NC(N(Cc2ccccc2)Cc2ccccc2)N(Cc2ccccc2)N1 (centres undefined) | 67.9 | 29.3 | > 100 | 30.8 |  | 29.6 | 37.2 | > 100 | 33.9 | 30.7 |  |  |  |  |  |  | 
12 | CSc1ccc2c(cc1=O)[C@@H](NC(=O)c1cc(O)c(O)c(O)c1)CCc1cc(O)c(O)c(O)c1-2 | 55.7 |  | 40.7 | > 100 |  | 43.6 | 94.8 | 91.8 | 83.8 | 37.8 |  |  |  |  |  |  | 
13 | Cc1ccc2c(c1-c1ccccc1)C(=O)OC2 | > 100 | > 100 | > 100 | 60.7 |  |  | > 100 | > 100 | > 100 | > 100 |  |  |  |  |  |  | 
14 | N#Cc1c(-c2ccco2)cc(-c2ccc(N)cc2)[nH]c1=O | > 100 | > 100 | > 100 | > 100 |  | > 100 | > 100 |  | > 100 | > 100 |  |  |  |  |  |  | 
15 | NC(CCc1ncc(C(=O)O)s1)C(=O)O (centres undefined) | > 100 | > 100 |  |  |  | > 100 | > 100 | > 100 | > 100 | > 100 |  |  |  |  |  |  | 
16 | CCOC(=O)C1=C(Nc2ccc(Br)cc2)OCC1=O | > 100 |  | 33.9 | > 100 |  | > 100 | > 100 | > 100 | > 100 | > 100 |  |  |  |  |  |  | 
17 | C=CCC1(C)CCCCC1(O)CS(=O)c1ccccc1 (centres undefined) | > 100 | > 100 | > 100 | > 100 |  | > 100 | > 100 | > 100 | > 100 |  |  |  |  |  |  |  | 
18 | O=C1C2[C@@H](C(=O)N1c1ccc(Br)cc1)C13C(=CC2([N+](=O)[O-])[C@@H]2C(=O)N(c4ccc(Br)cc4)C(=O)[C@@H]21)c1ccccc1N3c1ccccc1 (some centres undefined) | > 100 | > 100 | > 100 |  |  | > 100 | > 100 | > 100 | 38.7 |  |  |  |  |  |  |  | 
19 | NC(=O)c1cn(Cc2ccccc2)c(=O)n1Cc1ccccc1 | > 100 |  | > 100 | > 100 |  | > 100 | > 100 | > 100 | > 100 | > 100 |  |  |  |  |  |  | 
